{"source": "patent US20190125888A1", "about": "“TARGETED CONJUGATES AND PARTICLES AND FORMULATIONS THEREOF” (priority 2015, published 2019)", "key": {"[1]": {"assay": "Ligand charge of maytansinoid conjugates", "format": "physicochemical"}, "[2]": {"tested_on": "NCI-H524 (ATCC) human lung cancer cells", "format": "cell-based", "method": "FIG. 1 is a graph of various conjugates represented as bars and showing on the Y-axis their activity in an H524 proliferation assay with and without competition by octreotide. […] This illustrates the suprprising finding that only maytansinoid conjugates show activity that is dependent on the receptor.\nConjugates were assessed in an in vitro assay evaluating inhibition of cell proliferation. NCI-H524 (ATCC) human lung cancer cells were plated in 96 well, V-bottomed plates (Costar) at a concentration of 5,000 cells/well and 24 hours later were treated with compound for 6 hours and further incubated 66 hours. Compound starting dose was 20 μM and three fold serial dilutions were done for a total of ten points. After 6 hours of treatment, cells were spun down, the drug containing media was removed, and fresh complete medium was added and used to resuspend the cells, which were spun again. After removal of the wash media, the cells were resuspended in complete medium, then transferred into white walled, flat bottomed 96 well plates. […] Proliferation was measured using CellTiter Glo reagent using the standard protocol (Promega) and a Glomax multi+detection system (Promega). Percent proliferation inhibition was calculated using the following formula: % inhibition=(control-treatment)/control*100. Control is defined as vehicle alone. IC50 curves were generated using the nonlinear regression analysis (four parameter) with GraphPad Prism 6.\nConjugates were tested for their activity dependence on the somatostatin receptor. Active agent Z in the conjugate was selected from auristatin, carbazitaxel, DM1, doxorubicin, platinum, SN-38 and vinblastine. Active agent Z is connected to octreotide with various linkers. Proliferation IC50 values of the conjugates were measured. Proliferation IC50 values of the conjugates without octreotide competition were also measured. The ratio of IC50 with octreotide competition and IC50 without octreotide competition is an indicator of whether activity is at least particially dependent on bind to the somatostatin receptor. […] Therefore, the activity of conjugates comprising DM1 is dependent on the binding to the somatostatin receptor."}, "[3]": {"details": "read-out: H524 IC50 6 h, 6 hours treatment, further 66 hours incubation"}, "[4]": {"details": "read-out: H524 IC50 with 100 μM octreotide 6 h, with 100 μM octreotide competition, 6 h treatment"}}, "note": "Read-outs that look alike come from different tables or passages of the source."}
{"molecule": "CCNC(=O)N[C@H](Cc1ccccc1)C(=O)N[C@H]1CSSC[C@@H](C(=O)N[C@H](C(=O)N[C@@H](CSSCCC(=O)N(C)[C@@H](C)C(=O)O[C@H]2CC(=O)N(C)c3cc(cc(OC)c3Cl)C/C(C)=C/C=C/[C@@H](OC)[C@@]3(O)C[C@H](OC(=O)N3)[C@@H](C)[C@@H]3O[C@@]23C)C(N)=O)[C@@H](C)O)NC(=O)[C@H]([C@@H](C)O)NC(=O)[C@H](CCCCN)NC(=O)[C@@H](Cc2c[nH]c3ccccc23)NC(=O)[C@H](Cc2ccc(O)cc2)NC1=O", "note": "[Conjugate 36]", "values": [{"measurement": "Ligand charge", "setting": "[1]", "value": "+1"}, {"measurement": "IC50", "setting": "[2]; [3]", "value": 0.78, "unit": "nM"}, {"measurement": "IC50", "setting": "[2]; [4]", "value": 10, "unit": "nM"}]}
{"molecule": "CCNC(=O)N[C@H](Cc1ccccc1)C(=O)N[C@H]1CSSC[C@@H](C(=O)N[C@H](C(=O)N[C@H](C(N)=O)C(C)(C)SSCCC(=O)N(C)[C@@H](C)C(=O)O[C@H]2CC(=O)N(C)c3cc(cc(OC)c3Cl)C/C(C)=C/C=C/[C@@H](OC)[C@@]3(O)C[C@H](OC(=O)N3)[C@@H](C)[C@@H]3O[C@@]23C)[C@@H](C)O)NC(=O)[C@H]([C@@H](C)O)NC(=O)[C@H](CCCCN)NC(=O)[C@@H](Cc2c[nH]c3ccccc23)NC(=O)[C@H](Cc2ccc(O)cc2)NC1=O", "note": "[Conjugate 16]", "values": [{"measurement": "Ligand charge", "setting": "[1]", "value": "+1"}, {"measurement": "IC50", "setting": "[2]; [3]", "value": 185, "unit": "nM"}, {"measurement": "IC50", "setting": "[2]; [4]", "value": 516, "unit": "nM"}]}
{"molecule": "COc1cc2cc(c1Cl)N(C)C(=O)C[C@H](OC(=O)[C@H](C)N(C)C(=O)CCSC1CC(=O)N(CCCCCNC(=O)[C@@H](NC(=O)[C@@H]3CSSC[C@H](NC(=O)[C@@H](Cc4ccccc4)NC(=O)NC4CCCCC4)C(=O)N[C@@H](Cc4ccc(O)cc4)C(=O)N[C@H](Cc4c[nH]c5ccccc45)C(=O)N[C@@H](CCCCN)C(=O)N[C@@H]([C@@H](C)O)C(=O)N3)[C@@H](C)O)C1=O)[C@]1(C)O[C@H]1[C@H](C)[C@@H]1C[C@@](O)(NC(=O)O1)[C@H](OC)/C=C/C=C(\\C)C2", "note": "(some centres unmarked) [Conjugate 22]", "values": [{"measurement": "Ligand charge", "setting": "[1]", "value": "+1"}, {"measurement": "IC50", "setting": "[2]; [3]", "value": 2.6, "unit": "nM"}, {"measurement": "IC50", "setting": "[2]; [4]", "value": 94, "unit": "nM"}]}
{"molecule": "CCNC(=O)N[C@H](Cc1ccccc1)C(=O)N[C@H]1CSSC[C@@H](C(=O)N[C@H](C(=O)NCCCCCN2C(=O)CC(SCCC(=O)N(C)[C@@H](C)C(=O)O[C@H]3CC(=O)N(C)c4cc(cc(OC)c4Cl)C/C(C)=C/C=C/[C@@H](OC)[C@@]4(O)C[C@H](OC(=O)N4)[C@@H](C)[C@@H]4O[C@@]34C)C2=O)[C@@H](C)O)NC(=O)[C@H]([C@@H](C)O)NC(=O)[C@H](CCCCN)NC(=O)[C@@H](Cc2c[nH]c3ccccc23)NC(=O)[C@H](Cc2ccc(O)cc2)NC1=O", "note": "(some centres unmarked) [Conjugate 23]", "values": [{"measurement": "Ligand charge", "setting": "[1]", "value": "+1"}, {"measurement": "IC50", "setting": "[2]; [3]", "value": 5, "unit": "nM"}, {"measurement": "IC50", "setting": "[2]; [4]", "value": 124, "unit": "nM"}]}
{"molecule": "CCNC(=O)N[C@H](Cc1ccccc1)C(=O)N[C@H]1CSSC[C@@H](C(=O)N[C@H](C(=O)N2CCCCC2)C(C)(C)SSCCC(=O)N(C)[C@@H](C)C(=O)O[C@H]2CC(=O)N(C)c3cc(cc(OC)c3Cl)C/C(C)=C/C=C/[C@@H](OC)[C@@]3(O)C[C@H](OC(=O)N3)[C@@H](C)[C@@H]3O[C@@]23C)NC(=O)[C@H]([C@@H](C)O)NC(=O)[C@H](CCCCN)NC(=O)[C@@H](Cc2c[nH]c3ccccc23)NC(=O)[C@H](Cc2ccc(O)cc2)NC1=O", "note": "[Conjugate 33]", "values": [{"measurement": "Ligand charge", "setting": "[1]", "value": "+1"}, {"measurement": "IC50", "setting": "[2]; [3]", "value": 265, "unit": "nM"}, {"measurement": "IC50", "setting": "[2]; [4]", "value": 462, "unit": "nM"}]}
{"molecule": "CCCC(=O)N[C@H](Cc1ccccc1)C(=O)N[C@H]1CSSC[C@@H](C(=O)N[C@H](C(=O)NCCSSC(C)(C)CCC(=O)N(C)[C@@H](C)C(=O)O[C@H]2CC(=O)N(C)c3cc(cc(OC)c3Cl)C/C(C)=C/C=C/[C@@H](OC)[C@@]3(O)C[C@H](OC(=O)N3)[C@@H](C)[C@@H]3O[C@@]23C)[C@@H](C)O)NC(=O)[C@H]([C@@H](C)O)NC(=O)[C@H](CCCCN)NC(=O)[C@@H](Cc2c[nH]c3ccccc23)NC(=O)[C@H](Cc2ccc(O)cc2)NC1=O", "note": "[Conjugate 3]", "values": [{"measurement": "Ligand charge", "setting": "[1]", "value": "+1"}]}
{"molecule": "C[C@@H](O)[C@@H]1NC(=O)[C@H](CCCCN)NC(=O)[C@@H](Cc2c[nH]c3ccccc23)NC(=O)[C@H](Cc2ccccc2)NC(=O)[C@@H](NC(=O)[C@H](N)Cc2ccccc2)CSSC[C@@H](C(=O)N[C@H](CO)[C@@H](C)O)NC1=O", "note": "[Octreotide, H2N-D-Phe-Cys-Phe-D-Trp-Lys-Thr-Cys-Thr-ol (disulfide bridge Cys2-Cys7), reference compound]", "values": [{"measurement": "effect on cell proliferation", "setting": "[2]; octreotide alone", "value": "no significant effect"}]}
